Converted amounts (≈) assume the structure as drawn. Non-standard residues stand in square brackets, D forms with d. Residues, ends and D or L forms follow the SMILES beside them. Abu = CC[C@H](N)C(=O)O
Test system: Fusarium culmorum (IMI 180420)
Test: Antifungal growth inhibition microplate assay (photospectrometry)
Type: cell-based
Conditions: for antifungal activity (in words): overlapping 13- to 20-mer MPS peptides Ile26-Phe49, Cys replaced by alpha-aminobutyric acid, FIGS. 10-13; for F CULMORUM IC50: Table 7 / FIG. 8: Rs-AFP1-based 12-mer split peptides; for F CULMORUM IC: Table 6 / FIG. 8: Rs-AFP1-based 9-mer split peptides; for IC50 1/2 PDB: 2 × 10^4 spores/ml; for IC50 1/2 PDB / IC50 SMF + pH5 / IC50 SMF + pH7: duplo; for IC50 ½ PDB: peptides single experiment
Description: The following fungal strains were used: Alternaria brassicicola (MUCL 20297), Ascophyta pisi (MUCL 30164), Botrytis cinerea (MUCL 30158), Fusarium culmorum (IMI 180420) and Verticillium dahliae (MUCL 19210).
Fungi were grown on six cereal agar plates at room temperature and under white fluorescent light except for F culmorum and V dahliae which were grown in the dark. The duration of the spore harvest varied between 10 and 25 days depending on the strain. Spores were collected as follows. Five to ten ml of sterile milli-Q water was poured into each dish and the surface of the agar was rubbed with a sterile spatula to obtain a suspension containing mycelium and spores. This suspension was filtered through a sterile glasswool-plugged funnel and the filtrate containing the spores was collected in a sterile polypropylene centrifuge tube. The A brassicicola spores were suspended in sterile 0.1 Tween 20 (Merk, 822184) due to their hydrophobic nature. The spore suspensions were then washed twice by centrifugation at 2,400×g for 15 minutes and resuspended in a small volume of steril milli-Q water. The spore density was determined in a counting chamber and then adjusted to 4×10^7 spores per ml. Aliquots of the spore suspension were transferred to sterile microtubes and an equal volume of sterile 50% glycerol (Merck, 4091) was added to each tube so that a final spore suspension of 2×10^7 spores per ml in 25% glycerol was obtained. After careful mixing of the stock, the spore suspension was transferred in 100 μl aliquots to sterile microtubes and stored at −80° C.
Antifungal activity was measured by photospectrometry as described by Broekaert et al, (1990, FEMS Microbiol Lett, 69:55-60). Tests were performed by adding 20 μl of test solution and 80 μl of a fungal spore suspension (2×10^4 spores/ml) per well in a sterile flat-bottom 96-well microtiterplate. The spore suspension was prepared by diluting the stock spore suspension ([…] in 25% glycerol) 1:1000 in half-strength potato dextrose broth. A positive growth control consisting of eight wells containing 20 μl of sterile milli-Q water and 80 μl of the fungal spore suspension was included in each test. The microtiterplates were incubated (with the lid on) in an aerated place at room temperature and under conditions of darkness for all test organisms.
After 30 minutes of incubation (when the spores are settled on the well bottom) the optical density was measured in a microplate reader (Bio Rad 3550-UV) at 595 nm. Incubation of the microtiterplates continued until the optical density of the control microculture was between 0.250 and 0.500, which took approximately 72 hours (96 hours for V dahliae). Percentage of growth inhibition (% GI) was estimated as 100 times the ratio of the corrected absorbance of the control microculture minus the corrected absorbance of the test microculture over the corrected absorbance of the control microculture at 595 nm. The corrected absorbance values equal the absorbance at 595 nm of the culture measured after 72 or 96 hours minus the absorbance at 595 nm measured after 30 minutes.
% GI=[(Acontrol−Atest/Acontrol]×100
where Acontrol=(A72/96h−A30min)control
The IC50 value is defined as the concentration that gives a 50% growth inhibition after 72 or 96 hours of incubation. The minimum inhibitory concentration (MIC) corresponds to the minimum concentration that gives 100% growth inhibition after 72 or 96 hours incubation.

[1] = Table 3 / FIG. 6: Rs-AFP2-based 9-mer split peptides, ½ PDB, the source numbers peptides by N-terminal amino acid
[2] = Table 3: Rs-AFP2-based 9-mer split peptides, ½ PDB, duplicate
[3] = Table 4 / FIG. 6: Rs-AFP2-based 12-mer split peptides, ½ PDB, the source numbers peptides by N-terminal amino acid
[4] = Table 4: Rs-AFP2-based 12-mer split peptides, ½ PDB, triplicate
[5] = ½ PDB, the source numbers peptides by N-terminal amino acid
[6] = Table 7: Rs-AFP1-based 12-mer split peptides, ½ PDB
[7] = Table 6: Rs-AFP1-based 9-mer split peptides, ½ PDB
[8] = Table 13: linear β2-β3 loop MPS peptides
[9] = Table 13: linear β2-β3 loop MPS peptides, SMF+ (1 mM Ca2+, 50 mM K+) pH5
[10] = Table 13: linear β2-β3 loop MPS peptides, SMF+ (1 mM Ca2+, 50 mM K+) pH7
[11] = Table 14: 18-, 19-, 20-mer peptides with C-terminal Phe49
[12] = Table 10: medium 1/16 PDB, one test, fungus not named in Example 7
[13] = Table 10: medium ½ PDB, one test, fungus not named in Example 7

HGSBNYVFPAHKBIBY (Ac-HGS[Abu]NYVFPAHK[Abu]I[Abu]Y-NH2; listed as Raphanus sativus) [SEQ ID NO: 99]
antifungal activity (in words): nonactive

Ac-CIRLEKARH-NH2 [compound 71]
IC50 [1]: 66 µg/mL | MIC [2]: 100 µg/mL

113 (QCIRLEKARHGS; listed as Raphanus sativus) [compound 113]
IC50 [3]: 127 µg/mL | MIC [4]: 200 µg/mL | F CULMORUM IC50 [5]: 362 µg/mL | F CULMORUM MIC [6]: 400 µg/mL

Ac-YVFPAHKCI-NH2 [compound 84]
IC50 [1]: 175 µg/mL | MIC [2]: 400 µg/mL | F CULMORUM IC [5]: 145 µg/mL | F CULMORUM MIC [7]: 250 µg/mL

CC[C@H](NC(=O)[C@H](CO)NC(=O)CNC(=O)[C@H](Cc1c[nH]cn1)NC(=O)[C@H](CCCNC(=N)N)NC(=O)[C@H](C)NC(=O)[C@H](CCCCN)NC(C)=O)C(=O)N[C@@H](CC(N)=O)C(=O)N[C@@H](Cc1ccc(O)cc1)C(=O)N[C@H](C(=O)N[C@@H](Cc1ccccc1)C(=O)N1CCC[C@H]1C(=O)N[C@@H](C)C(=O)N[C@@H](Cc1c[nH]cn1)C(=O)N[C@@H](CCCCN)C(=O)N[C@@H](CC)C(=O)N[C@H](C(=O)N[C@@H](CC)C(=O)N[C@@H](Cc1ccc(O)cc1)C(=O)N[C@@H](Cc1ccccc1)C(N)=O)[C@@H](C)CC)C(C)C [Peptide N1, KARHGSBNYVFPAHKBIBYF] (Ac-KARHGS[Abu]NYVFPAHK[Abu]I[Abu]YF-NH2)
IC50 1/2 PDB [8]: 14.0 ± 6.2 µg/mL (≈ 6 µM) | IC50 SMF + pH5 [9]: 27.0 ± 7.7 μg/ml | IC50 SMF + pH7 [10]: 142.6 ± 13.6 μg/ml

Ac-KNQCIRLEKARH-NH2 [compound 111]
IC50 [3]: 126 µg/mL | MIC [4]: 200 µg/mL

CC[C@H](NC(=O)[C@H](CO)NC(=O)CNC(=O)[C@H](Cc1c[nH]cn1)NC(=O)[C@H](CCCNC(=N)N)NC(=O)[C@H](C)NC(=O)[C@H](CCCCN)NC(C)=O)C(=O)N[C@@H](CC(N)=O)C(=O)N[C@@H](Cc1ccc(O)cc1)C(=O)N[C@H](C(=O)N[C@@H](Cc1ccccc1)C(=O)N1CCC[C@H]1C(=O)N[C@@H](C)C(=O)N[C@@H](Cc1c[nH]cn1)C(=O)N[C@@H](CCCCN)C(=O)N[C@@H](CC)C(=O)N[C@H](C(=O)N[C@@H](CC)C(=O)N[C@@H](Cc1ccc(O)cc1)C(=O)N[C@@H](Cc1ccccc1)C(N)=O)[C@@H](C)CC)C(C)C [Peptide Q06, KARHGSBNYVFPAHKBIBYF] (Ac-KARHGS[Abu]NYVFPAHK[Abu]I[Abu]YF-NH2)
IC50 SMF + pH5 [11]: 31 ± 17 μg/ml | IC50 SMF + pH7 [11]: 62 ± 8 μg/ml | IC50 ½ PDB [11]: 4.8 µg/mL (≈ 2.06 µM)

CC[C@H](NC(=O)[C@H](CO)NC(=O)CNC(=O)[C@H](Cc1c[nH]cn1)NC(=O)[C@H](CCCNC(=N)N)NC(=O)[C@H](C)NC(C)=O)C(=O)N[C@@H](CC(N)=O)C(=O)N[C@@H](Cc1ccc(O)cc1)C(=O)N[C@H](C(=O)N[C@@H](Cc1ccccc1)C(=O)N1CCC[C@H]1C(=O)N[C@@H](C)C(=O)N[C@@H](Cc1c[nH]cn1)C(=O)N[C@@H](CCCCN)C(=O)N[C@@H](CC)C(=O)N[C@H](C(=O)N[C@@H](CC)C(=O)N[C@@H](Cc1ccc(O)cc1)C(=O)N[C@@H](Cc1ccccc1)C(N)=O)[C@@H](C)CC)C(C)C [Peptide 001, ARHGSBNYVFPAHKBIBYF] (Ac-ARHGS[Abu]NYVFPAHK[Abu]I[Abu]YF-NH2)
IC50 SMF + pH5 [11]: 102 ± 2 μg/ml | IC50 SMF + pH7 [11]: 159 ± 5 μg/ml | IC50 ½ PDB [11]: 5.6 µg/mL (≈ 2.54 µM)

Ac-NYVFPAHKC-NH2 [compound 83]
IC50 [1]: 175 µg/mL | MIC [2]: 250 µg/mL | F CULMORUM IC [5]: 330 µg/mL | F CULMORUM MIC [7]: 400 µg/mL

CC[C@H](C)[C@H](NC(=O)[C@H](CS)NC(=O)[C@H](CCC(N)=O)NC(=O)[C@H](CC(N)=O)NC(=O)[C@H](CCCCN)NC(=O)[C@H](CS)NC(=O)[C@H](C)NC(=O)[C@H](CC(N)=O)NC(=O)[C@H](CC(N)=O)NC(=O)[C@H](CC(N)=O)NC(C)=O)C(=O)N[C@@H](CCCNC(=N)N)C(=O)N[C@@H](CC(C)C)C(N)=O [compound 106] (Ac-NNNACKNQCIRL-NH2)
IC50 [3]: 116 µg/mL (≈ 81 µM) | MIC [4]: 150 µg/mL (≈ 105 µM)

110 (CKNQCIRLEKAR; listed as Raphanus sativus) [compound 110]
IC50 [3]: 148 µg/mL | MIC [4]: 200 µg/mL | F CULMORUM IC50 [5]: 223 µg/mL | F CULMORUM MIC [6]: 400 µg/mL

CC[C@H](C)[C@H](NC(=O)[C@H](CS)NC(=O)[C@H](CCC(N)=O)NC(=O)[C@H](CC(N)=O)NC(=O)[C@H](CCCCN)NC(=O)[C@H](CS)NC(=O)[C@H](C)NC(C)=O)C(=O)N[C@@H](CCCNC(=N)N)C(=O)N[C@@H](CC(C)C)C(N)=O [compound 66] (Ac-ACKNQCIRL-NH2)
IC50 [1]: 105 µg/mL (≈ 96.4 µM) | MIC [2]: 150 µg/mL (≈ 138 µM)

CC[C@H](NC(=O)[C@H](CO)NC(=O)CNC(=O)[C@H](Cc1c[nH]cn1)NC(=O)[C@H](CCCNC(=N)N)NC(=O)[C@H](C)NC(C)=O)C(=O)N[C@@H](CC(N)=O)C(=O)N[C@@H](Cc1ccc(O)cc1)C(=O)N[C@H](C(=O)N[C@@H](Cc1ccccc1)C(=O)N1CCC[C@H]1C(=O)N[C@@H](C)C(=O)N[C@@H](Cc1c[nH]cn1)C(=O)N[C@@H](CCCCN)C(=O)N[C@@H](CC)C(=O)N[C@H](C(=O)N[C@@H](CC)C(=O)N[C@@H](Cc1ccc(O)cc1)C(=O)N[C@@H](Cc1ccccc1)C(N)=O)[C@@H](C)CC)C(C)C [Peptide G2, ARHGSBNYVFPAHKBIBYF] (Ac-ARHGS[Abu]NYVFPAHK[Abu]I[Abu]YF-NH2)
antifungal activity compared with peptide G1 (and G2), in words (19-mer peptides, Example 7): does not affect antifungal activity | IC50 [12]: 10 µg/mL (≈ 4.54 µM) | MIC [12]: 12.5 µg/mL (≈ 5.67 µM) | IC50 [13]: 17 µg/mL (≈ 7.71 µM) | MIC [13]: 25 µg/mL (≈ 11.3 µM) | IC50 1/2 PDB [8]: 16.0 ± 1.2 µg/mL (≈ 7.26 µM) | IC50 SMF + pH5 [9]: 50.0 ± 6.0 μg/ml | IC50 SMF + pH7 [10]: >400 μg/ml

CC[C@H](C)[C@H](NC(=O)[C@H](CS)NC(=O)[C@H](CCC(N)=O)NC(=O)[C@H](CC(N)=O)NC(=O)[C@H](CCCCN)NC(=O)[C@H](CS)NC(=O)[C@H](C)NC(=O)[C@H](CC(N)=O)NC(C)=O)C(=O)N[C@@H](CCCNC(=N)N)C(N)=O [compound 65] (Ac-NACKNQCIR-NH2)
IC50 [1]: 144 µg/mL (≈ 132 µM) | MIC [2]: 200 µg/mL (≈ 183 µM)

RHGSBNYVFPAHKBIBY (Ac-RHGS[Abu]NYVFPAHK[Abu]I[Abu]Y-NH2; listed as Raphanus sativus) [SEQ ID NO: 107]
antifungal activity (in words): very active

Ac-NQCIRLEKARHG-NH2 [compound 112]
IC50 [3]: 149 µg/mL | MIC [4]: 200 µg/mL

Ac-QCIRLEKAR-NH2 [compound 70]
IC50 [1]: 78 µg/mL | MIC [2]: 100 µg/mL

116 (RLEKARHGSCNY; listed as Raphanus sativus) [compound 116]
IC50 [3]: 202 µg/mL | MIC [4]: 400 µg/mL | F CULMORUM IC50 [5]: 359 µg/mL | F CULMORUM MIC [6]: 400 µg/mL

— patent US20030226169A1, “DNA sequences encoding antifungal proteins” (priority 1995, published 2003)
